Measured values reported in patent US9750759B2, “Antitumoral compounds” (priority 2008, dated 2017).
Where two headings read alike, the source gives them in different places.

Tests used:
Assay in all cases: cells
Assay type in all cases: cell-based
Settings in all cases: Homo sapiens; for GI50: concentration that produces 50% growth inhibition; for IC (total growth inhibition): total growth inhibition (cytostatic effect), read-out: TGI
A549 = tested on: A549
From the text: (§1) The aim of this assay is to evaluate the in vitro cytostatic (ability to delay or arrest tumor cell growth) or cytotoxic (ability to kill tumor cells) activity of the samples being tested.
(§2) A colorimetric type of assay, using sulforhodamine B (SRB) reaction has been adapted for a quantitative measurement of cell growth and viability (following the technique described by Skehan P et al. J. Natl. Cancer Inst. 1990, 82, 1107-1112).
(§3) This form of assay employs SBS-standard 96-well cell culture microplates (Faircloth et al. Methods in cell science, 1988, 11(4), 201-205; Mosmann et al, Journal of Immunological. Methods, 1983, 65(1-2), 55-63). All the cell lines used in this study, derived from different types of human cancer, were obtained from the American Type Culture Collection (ATCC).
(§4) Cells were maintained in Dulbecco's Modified Eagle Medium (DMEM) supplemented with 10% Fetal Bovine Serum (FBS), 2 mM L-glutamine, 100 U/mL penicillin and 100 U/mL streptomycin at 37° C., 5% CO2 and 98% humidity. For the experiments, cells were harvested from subconfluent cultures using trypsinization and resuspended in fresh medium before counting and plating.
(§5) Cells were seeded in 96 well microtiter plates at 5×10^3 cells per well in aliquots of 150 μL, and allowed to attach to the plate surface for 18 hours in drug free medium. One control (untreated) plate of each cell line was fixed (as described below) and used for time zero reference value. Afterwards, test samples were added to the cultures in ten serial dilutions, in aliquots of 50 μL, ranging from 10 to 0.00262 μg/mL. After 48 hours exposure, the antitumor effect was estimated by the SRB method: Briefly, cells were washed twice with PBS, fixed for 15 min in 1% glutaraldehyde solution, rinsed twice in PBS, and stained in 0.4% SRB solution for 30 min at room temperature. Cells were then rinsed several times with 1% acetic acid solution and air-dried. SRB was then extracted in 10 mM trizma base solution and the absorbance measured in an automated spectrophotometric plate reader at 490 nm. Cell survival was expressed as percentage of control cell growth. The final effect of the sample being tested was estimated by applying the NCI algorithm (Boyd M R and Paull K D. Drug Dev. Res. 1995, 34, 91-104).
(§6) Using the mean±SD of triplicate cultures, a dose-response curve was automatically generated using nonlinear regression analysis. Three reference parameters were calculated (NCI algorithm) by automatic interpolation: GI50=concentration that produces 50% growth inhibition; TGI=total growth inhibition (cytostatic effect) and LC50=concentration that produces 50% net cell killing (cytotoxic effect).

HT29 = tested on: HT29
From the text: as §1, §2, §3, §4, §5, §6

MDA-MB-231 = tested on: MDA-MB-231
From the text: as §1, §2, §3, §4, §5, §6

[1] = MDA-MB-231, 48 h, read-out: LC50
[2] = A549, 48 hours exposure, concentration that produces 50% net cell killing, read-out: LC50 (the source's name)
[3] = HT-29, HT29, 48 hours exposure, concentration that produces 50% net cell killing, read-out: LC50 (the source's name)
[4] = MDA-MB-231, 48 hours exposure, concentration that produces 50% net cell killing, read-out: LC50 (the source's name)

Row | Compound | CC50 (A549; A549, 48 h, read-out: LC50) [µM] | GI50 (A549; A549, 48 hours exposure) [µM] | IC (total growth inhibition) (A549; A549, 48 hours exposure) [µM] | CC50 (HT29; HT-29, 48 h, read-out: LC50) [µM] | GI50 (HT29; HT-29, HT29, 48 hours exposure) [nM] | IC (total growth inhibition) (HT29; HT-29, HT29, 48 hours exposure) [µM] | CC50 (MDA-MB-231; [1]) [µM] | GI50 (MDA-MB-231; MDA-MB-231, 48 hours exposure) [µM] | IC (total growth inhibition) (MDA-MB-231; MDA-MB-231, 48 hours exposure) [µM] | CC50 (A549; [2]) [µM] | CC50 (HT29; [3]) [µM] | CC50 (MDA-MB-231; [4]) [µM]
1 | COC1=CC[C@@H]([C@@H](C)/C=C(C)/C=C\C#CC(=O)N[C@H](C(=O)N/C=C\C[C@H](C/C=C(\C)Cl)OC(N)=O)C(C)(C)C)OC1=O [Compound 66a] | > 16.6 | 0.0331 | 0.397 | 2.81 | 12.1 | 0.0513 | > 16.6 | 0.0447 | 0.778 |  |  | 
2 | COC1=CC[C@@H]([C@@H](C)/C=C(C)/C=C\C#CC(=O)NC(C(=O)N/C=C\C[C@H](C/C=C(\C)Cl)O[Si](c2ccccc2)(c2ccccc2)C(C)(C)C)C(C)(C)C)OC1=O (stereo partly drawn) [Compound 78] |  | > 12.5 | > 12.5 |  | > 12500 | > 12.5 |  | > 12.5 | > 12.5 | > 12.5 | > 12.5 | > 12.5
3 | COC1=CC[C@@H]([C@@H](C)/C=C(C)/C=C\C#CC(=O)N[C@H](C(=O)N/C=C\C[C@H](C/C=C(\C)Cl)O[Si](C)(C)C(C)(C)C)C(C)(C)C)OC1=O [Compound 64a] |  | 4.44 | > 14.8 |  | 2220 | 4.29 |  | 4.89 | > 14.8 | > 14.8 | > 14.8 | > 14.8
4 | CC#CC[C@@H](C/C=C\NC(=O)[C@@H](NC(=O)\C=C/C=C\C(C)=C\[C@H](C)[C@@H]1CC=C(OC)C(=O)O1)C(C)(C)C)OC(N)=O [Compound 72] | > 0.176 | 0.000176 | 0.00281 | > 0.176 | 0.0579 | 0.000125 | > 0.176 | 0.000246 | 0.00193 |  |  | 
5 | COC1=CC[C@@H]([C@@H](C)/C=C(C)/C=C\C#CC(=O)N[C@H](C(=O)N/C=C\C[C@@H](O)C/C=C(\C)Cl)C(C)(C)C)OC1=O [Compound 65a] | 11.8 | 3.39 | 6.24 | 7.31 | 1780 | 3.03 | > 17.8 | 3.56 | 9.98 |  |  | 
